Measured values reported in the supplement of paper PMC13207355.

What was measured:
Settings in all cases: exposure time: 72 h
[1] = test system: E13 (patient-derived glioblastoma stem cells of classical subtype); test: surviving fraction (nuclei count normalised to DMSO); higher = more cells surviving (less toxic)
[2] = test system: E21 (patient-derived glioblastoma stem cells of mesenchymal subtype); test: as above
[3] = test system: E28 (patient-derived glioblastoma stem cells of classical subtype); test: as above
[4] = test system: E31 (patient-derived glioblastoma stem cells of proneural subtype); test: as above
[5] = test system: E34 (patient-derived glioblastoma stem cells of proneural subtype); test: as above
[6] = test system: E57 (patient-derived glioblastoma stem cells of mesenchymal subtype); test: as above
[7] = test system: FT3469 (normal neural stem cell line); test: as above
[8] = test system: E13; test: phenotypic distance (Euclidean, principal components) from DMSO controls (arbitrary units); higher = stronger morphological change
[9] = test system: E21; test: as above
[10] = test system: E28; test: as above
[11] = test system: E31; test: as above
[12] = test system: E34; test: as above
[13] = test system: E57; test: as above
[14] = test system: FT3469; test: as above
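Throughout, for phenotypic distance (Euclidean, principal components) from DMSO controls: cell Painting imaging in 384-well plates, CellProfiler features reduced to at least 20 principal components, Euclidean distance versus same-plate DMSO vehicle wells (0.1% v/v), median over six images per well.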
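Throughout, for surviving fraction (nuclei count normalised to DMSO): nuclei counted by high-content imaging of Hoechst-stained cells in laminin-coated 384-well plates, relative to 0.1% DMSO vehicle wells, with staurosporine as cell-death control.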

Cc1cccn2c(=O)c(-c3nnn[nH]3)cnc12 [Pemirolast potassium]
Settings | phenotypic distance | surviving fraction
[1], 4.1 nM | – | 0.925
[1], 12.3 nM | – | 0.971
[1], 37 nM | – | 1
[1], 111.1 nM | – | 1.04
[1], 333.3 nM | – | 0.947
[1], 1000 nM | – | 0.974
[1], 3000 nM | – | 1.18
[2], 4.1 nM | – | 0.923
[2], 12.3 nM | – | 0.982
[2], 37 nM | – | 0.908
[2], 111.1 nM | – | 0.88
[2], 333.3 nM | – | 0.953
[2], 1000 nM | – | 1.01
[2], 3000 nM | – | 1.1
[3], 4.1 nM | – | 1.07
[3], 12.3 nM | – | 1.11
[3], 37 nM | – | 1.06
[3], 111.1 nM | – | 0.959
[3], 333.3 nM | – | 1.14
[3], 1000 nM | – | 1.05
[3], 3000 nM | – | 1.22
[4], 4.1 nM | – | 0.909
[4], 12.3 nM | – | 0.917
[4], 37 nM | – | 0.897
[4], 111.1 nM | – | 0.921
[4], 333.3 nM | – | 1.21
[4], 1000 nM | – | 0.987
[4], 3000 nM | – | 1.12
[5], 4.1 nM | – | 1.09
[5], 12.3 nM | – | 0.99
[5], 37 nM | – | 1.04
[5], 111.1 nM | – | 0.927
[5], 333.3 nM | – | 1.15
[5], 1000 nM | – | 1.03
[5], 3000 nM | – | 1.11
[6], 4.1 nM | – | 0.965
[6], 12.3 nM | – | 0.992
[6], 37 nM | – | 0.959
[6], 111.1 nM | – | 1.09
[6], 333.3 nM | – | 0.986
[6], 1000 nM | – | 1.01
[6], 3000 nM | – | 1.01
[7], 4.1 nM | – | 1.01
[7], 12.3 nM | – | 0.959
[7], 37 nM | – | 1.08
[7], 111.1 nM | – | 1.07
[7], 333.3 nM | – | 1.19
[7], 1000 nM | – | 1.09
[7], 3000 nM | – | 1.23
[8], 4.1 nM | 0.849 | –
[8], 12.3 nM | 0.649 | –
[8], 37 nM | 2.3 | –
[8], 111.1 nM | 0.669 | –
[8], 333.3 nM | 3.24 | –
[8], 1000 nM | 0.451 | –
[8], 3000 nM | 0.784 | –
[9], 4.1 nM | 0.761 | –
[9], 12.3 nM | 0.597 | –
[9], 37 nM | 3.74 | –
[9], 111.1 nM | 0.731 | –
[9], 333.3 nM | 0.31 | –
[9], 1000 nM | 0.294 | –
[9], 3000 nM | 0.896 | –
[10], 4.1 nM | 0.658 | –
[10], 12.3 nM | 0.636 | –
[10], 37 nM | 0.677 | –
[10], 111.1 nM | 0.665 | –
[10], 333.3 nM | 0.613 | –
[10], 1000 nM | 0.514 | –
[10], 3000 nM | 0.875 | –
[11], 4.1 nM | 1.22 | –
[11], 12.3 nM | 0.493 | –
[11], 37 nM | 0.804 | –
[11], 111.1 nM | 0.401 | –
[11], 333.3 nM | 0.814 | –
[11], 1000 nM | 0.403 | –
[11], 3000 nM | 0.73 | –
[12], 4.1 nM | 1.15 | –
[12], 12.3 nM | 0.672 | –
[12], 37 nM | 0.605 | –
[12], 111.1 nM | 0.603 | –
[12], 333.3 nM | 0.641 | –
[12], 1000 nM | 0.674 | –
[12], 3000 nM | 0.547 | –
[13], 4.1 nM | 0.873 | –
[13], 12.3 nM | 0.412 | –
[13], 37 nM | 0.46 | –
[13], 111.1 nM | 0.618 | –
[13], 333.3 nM | 0.603 | –
[13], 1000 nM | 0.198 | –
[13], 3000 nM | 0.693 | –
[14], 4.1 nM | 1.49 | –
[14], 12.3 nM | 0.577 | –
[14], 37 nM | 0.829 | –
[14], 111.1 nM | 0.485 | –
[14], 333.3 nM | 0.522 | –
[14], 1000 nM | 0.561 | –
[14], 3000 nM | 1.16 | –
